Measured values as given in publication PMC9751974 (Frontiers in Microbiology, 2022).
In brackets after ≈: the same amount, converted by molar mass. Read-outs that look alike come from different tables or passages of the source. One block for each compound: values may come before it. Where a SMILES comes first, the peptide text is derived from it. [ ]: non-standard residue; d: D form.

Assays:
[1] = test system: healthy mouse red blood cells; settings: cited from earlier work; for hemolysis rate: reported in previous research, ref Zhou et al., 2021
From the text: Escherichia coli (E. coli) infection and LPS-induced inflammation are still of severe threat to human health. With the increasing problem of antibiotic resistance, there is a desperate need to develop new approaches to solve the problem.

pepsin and trypsin = test: Protease stability, pepsin and trypsin stated together
Protocol: The untreated peptides and buffer solution were used as control. […] All assays were carried out in triplicate.

E. coli ATCC25922 [2] = test system: E. coli ATCC25922
Protocol: The MIC values of peptides against E. coli ATCC25922 were determined by the microtiter broth dilution method. The bacteria were grown to the mid-logarithmic phase and diluted into the Luria-Bertani (LB) broth at 1 × 10^5 CFU/mL. […] Polymyxin and the sterile aqua distillate were tested as control. All assays were performed in triplicate.

pepsin = pepsin (Sus scrofa, UniProt P00791); test: Protease stability (MIC after incubation with pepsin); type: in vitro ADME; settings: pepsin 3,000 U/mg, pH 2.0, 4 h, 37°C; peptide:protease 10:1 w/w (320 and 32 μg/mL); read-out MIC; triplicate
Protocol: All assays were carried out in triplicate.

[3] = test system: healthy mouse red blood cells; test: Hemolysis; settings: mouse red blood cells 8% v/v, PBS pH 7.4, 37°C, 1 h, OD540, three replicates
Protocol: Hemolytic activity was estimated by determining hemoglobin released from healthy mouse red blood cells. Blood cells were washed three times in sterile PBS (10 mM, pH 7.4) and centrifuged at 1500 rpm for 5 min at 4°C. […] Afterward, the mixtures were incubated at 37°C for 1 h and centrifuged at 1500 rpm for 5 min. Ultimately, the absorbance of supernatants was measured at 540 nm. PBS and 0.1% Triton X-100 were used as the negative and the positive control, respectively. Hemolysis (%) = [(OD540 nm of the treated sample-OD540 nm of the negative control)/ (OD540 nm of positive control-OD540 nm of negative control)] × 100%.

[4] = test system: RAW264.7 cells and Vero cells; test: Cytotoxicity, CCK-8 assay, RAW264.7 and Vero stated together; settings: 128 μg/mL; range over Figures 1D,E (RAW264.7 and Vero)
Protocol: Cells (2.5 × 10^4 cells/well) were added into 96-well plates and incubated at 37°C in a humidified 5% CO2 environment for 24 h. […] Sterile aqua distillate was used as control. Eventually, 10 μL WST-8 solutions were added into each well. After 4 h of incubation at 37°C, a microplate reader was applied to measure the absorbance of each sample at 460 nm. The following formula was used to calculate cell viability: Cell viability (%) = OD 460 nm of treated sample/OD 460 nm of control × 100%.

[5] = test system: murine RAW264.7 macrophage cells; settings: 128 μg/mL; cell line not given; ref Zhou et al., 2021; cited from earlier work
Protocol: The toxicity of peptides to mouse eukaryotic cells, macrophagocyte RAW 264.7 and Vero cells was determined.

[6] = ref Zhou et al., 2021; cited from earlier work
From the text: As essential components of innate immunity, antimicrobial peptides (AMPs) contribute to the first line of defense against infections. […] However, its ant ...

[7] = test system: murine RAW264.7 macrophage cells
Protocol: The performance of the Cell Counting Kit-8 (CCK-8) assay was applied to investigate the effect of peptides on the viability of murine RAW264.7 macrophage cells and Vero cells in accordance with the previous method ([Zhou et al., 2021]). Cells (2.5 × 10^4 cells/well) were added into 96-well plates and incubated at 37°C in a humidified 5% CO2 environment for 24 h. Then various concentrations (0.15–20 μg/mL) of peptides were mixed with cells. Sterile aqua distillate was used as control. Eventually, 10 μL WST-8 solutions were added into each well. After 4 h of incubation at 37°C, a microplate reader was applied to measure the absorbance of each sample at 460 nm. The following formula was used to calculate cell viability: Cell viability (%) = OD 460 nm of treated sample/OD 460 nm of control × 100%.

E. coli ATCC25922 [8] = test: Development of resistance by serial passaging (MIC assay); type: cell-based, Escherichia coli; settings: 11 serial passages of E. coli ATCC25922, inoculum from 1/4 MIC well, 11 days
Protocol: The development of resistance against E. coli ATCC25922 of these peptides was performed by MIC assay. Mid-log phase of bacteria (1 × 10^5 CFU/mL) (90 μL/well) was added to 10 μL peptides solution (128, 64, 32, 16, 8, 4, 2, 1, 0.5, 0.25 μg/mL). Polymyxin were used as control. After incubation at 37°C for 16–18 h, bacteria form 1/4 MIC well were used to inoculate in fresh culture. The MIC values were continually determined as described above. The serial passaging was repeated for 11 days.

pepsin, sequence (P00791 60-385): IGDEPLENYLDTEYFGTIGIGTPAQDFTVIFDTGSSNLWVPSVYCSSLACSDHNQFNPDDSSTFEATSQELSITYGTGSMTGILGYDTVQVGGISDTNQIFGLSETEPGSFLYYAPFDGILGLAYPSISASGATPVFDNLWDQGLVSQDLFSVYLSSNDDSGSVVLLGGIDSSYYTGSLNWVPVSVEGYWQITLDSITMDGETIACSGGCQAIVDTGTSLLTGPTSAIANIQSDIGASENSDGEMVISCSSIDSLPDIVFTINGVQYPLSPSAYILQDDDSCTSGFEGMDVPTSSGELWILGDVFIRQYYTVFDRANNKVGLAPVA

- decline of anti-E. coli ability after exposure to pepsin and trypsin (pepsin and trypsin): 4 times
- MIC (E. coli ATCC25922 [2]; ATCC25922): 8 µg/mL (≈ 4.25 µM)
Compound: CC(C)C[C@H](NC(=O)[C@H](CCCNC(=N)N)NC(=O)[C@@H](N)C(C)C)C(=O)N[C@@H](CCCNC(=N)N)C(=O)N[C@@H](Cc1c[nH]c2ccccc12)C(=O)N[C@@H](Cc1c[nH]c2ccccc12)C(=O)N[C@@H](CCCNC(=N)N)C(=O)N[C@@H](CCCNC(=N)N)C(=O)N[C@@H](CCCNC(=N)N)C(=O)N[C@@H](Cc1c[nH]c2ccccc12)C(=O)N[C@@H](CCCNC(=N)N)C(=O)N[C@@H](CCCNC(=N)N)C(N)=O [1018M] (H-VRLRWWRRRWRR-NH2)
- hemolysis [1]: 0%

Compound: CC[C@@H](C)[C@@H](NC(=O)[C@@H](CCCNC(=N)N)NC(=O)[C@H](NC(=O)[C@@H](C)NC(=O)[C@H](NC(=O)[C@H](NC(=O)[C@@H](CC(C)C)NC(=O)[C@@H](CCCNC(=N)N)NC(=O)[C@H](N)C(C)C)[C@H](C)CC)C(C)C)C(C)C)C(=O)N[C@H](Cc1c[nH]c2ccccc12)C(=O)N[C@H](CCCNC(=N)N)C(=O)N[C@H](CCCNC(=N)N)C(N)=O [D1018] (H-[dV][dR][dL][dI][dV][dA][dV][dR][dI][dW][dR][dR]-NH2)
- increase of resistance against tested proteases (pepsin and trypsin; abstract, D-peptides compared with L-parents): 2–4 times
- MIC against E. coli ATCC25922 after exposure to pepsin (pepsin): 4 µg/mL (≈ 2.6 µM)
- hemolysis rate ([3]; 32 μg/mL): 0.542%
- hemolysis rate ([3]; 64 μg/mL): 1.724%
- hemolysis rate ([3]; 128 μg/mL): 2.316%
- survival rate [4]: 81.7–87.6%

Compound: CC[C@H](C)[C@H](NC(=O)[C@H](CCCNC(=N)N)NC(=O)[C@@H](NC(=O)[C@H](C)NC(=O)[C@@H](NC(=O)[C@@H](NC(=O)[C@H](CC(C)C)NC(=O)[C@H](CCCNC(=N)N)NC(=O)[C@@H](N)C(C)C)[C@@H](C)CC)C(C)C)C(C)C)C(=O)N[C@@H](Cc1c[nH]c2ccccc12)C(=O)N[C@@H](CCCNC(=N)N)C(=O)N[C@@H](CCCNC(=N)N)C(N)=O [IDR-1018] (H-VRLIVAVRIWRR-NH2)
- hemolysis rate ([1]; 32 μg/mL): 0.386%
- hemolysis rate ([1]; 64 μg/mL): 2.136%
- hemolysis rate ([1]; 128 μg/mL): 2.651%
- decline of anti-E. coli ability after exposure to pepsin and trypsin (pepsin and trypsin; 4 h, 37°C, pepsin pH 2.0 and trypsin pH 8.0, 10:1 w/w, read-out MIC vs untreated peptide): 2–4 times
- survival rate [5]: 95.9%
- decrease of activity on exposure to inappropriate temperature, pH, or protease environment [6]: 2–16 times

- decline of anti-E. coli ability after exposure to pepsin and trypsin (pepsin and trypsin): 4 times
- increase of resistance against tested proteases (pepsin and trypsin): 2–4 times
- safe concentration of murine macrophage cells [7]: 4 times of MIC
- MIC (E. coli ATCC25922 [2]; ATCC25922): 4 µg/mL (≈ 2.13 µM)
Compound: CC(C)C[C@@H](NC(=O)[C@@H](CCCNC(=N)N)NC(=O)[C@H](N)C(C)C)C(=O)N[C@H](CCCNC(=N)N)C(=O)N[C@H](Cc1c[nH]c2ccccc12)C(=O)N[C@H](Cc1c[nH]c2ccccc12)C(=O)N[C@H](CCCNC(=N)N)C(=O)N[C@H](CCCNC(=N)N)C(=O)N[C@H](CCCNC(=N)N)C(=O)N[C@H](Cc1c[nH]c2ccccc12)C(=O)N[C@H](CCCNC(=N)N)C(=O)N[C@H](CCCNC(=N)N)C(N)=O [D1018M] (H-[dV][dR][dL][dR][dW][dW][dR][dR][dR][dW][dR][dR]-NH2)

Compound: Polymyxin [reference compound]
- change of MIC after serial passages (E. coli ATCC25922 [8]): no change in MIC
- MIC (E. coli ATCC25922 [2]; E. coli ATCC25922, LB broth, 1 × 10^5 CFU/mL, 37°C, 16–24 h, triplicate): 1.56 µg/mL
